# Experimental data as given in patent publication US20220265692A1, “ORALLY-ADMINISTERED PHARMACEUTICAL COMPOSITION FOR ERADICATING ANTIBIOTIC-RESISTANT HELICOBACTER PYLORI, COMPRISING COMPLEX OF NON-ABSORBABLE ANTIBIOTIC AND CLAY MINERAL” (priority 2019, published 2022).
# Where two headings read alike, the source gives them in different places.
# Columns and labels:
# Helicobacter pylori = details: general statement; cited from earlier work
# [1] = system: Helicobacter pylori clinical strains; assay: Evaluation of antibiotic resistant rate (in vitro MIC, 187 clinical strains); type: cell-based
# Procedure: Complexes of antibiotics (amoxicillin, clarithromycin, metronidazole, levofloxacin, and tetracyclin) and smectite which have been actually used for Helicobacter eradication treatment in current clinical trials were prepared and in vitro MIC for non-absorbable antibiotic candidate groups gentamicin, netilmicin, tobramycin, amikacin) to be used as a novel therapeutic agent was measured, and MIC50 and MIC90 were confirmed. To this end, 187 cultured positive clinical strains obtained from 1,265 patient samples were used.
# [2] = system: clarithromycin-resistant Helicobacter pylori; assay: Eradication activity in vitro on clarithromycin-resistant strain (disk); type: cell-based; details: strain with MIC of CLR 48 mg/L, twice repeated tests
# Text: Clarithromycin-resistant Helicobacter pylori was applied (red) in a medium and then a sample was made in a disk form and placed on the medium to measure the eradication effect. At this time, it was meant that if red disappeared around the disk, there was the eradication effect.
Compound,resistant rate ([1]; based on MIC 1 μg/ml),other results
"CC1(C)S[C@@H]2[C@H](NC(=O)[C@H](N)c3ccc(O)cc3)C(=O)N2[C@H]1C(=O)O [Amoxicilin, amoxicillin]",,resistance (Helicobacter pylori): less than 10%
NCC[C@H](O)C(=O)N[C@@H]1C[C@H](N)[C@@H](O[C@H]2O[C@H](CN)[C@@H](O)[C@H](O)[C@H]2O)[C@H](O)[C@H]1O[C@H]1O[C@H](CO)[C@@H](O)[C@H](N)[C@H]1O [amikacin],61.3%,
CC[C@H]1OC(=O)[C@H](C)[C@@H](O[C@H]2C[C@@](C)(OC)[C@@H](O)[C@H](C)O2)[C@H](C)[C@@H](O[C@@H]2O[C@H](C)C[C@H](N(C)C)[C@H]2O)[C@](C)(OC)C[C@@H](C)C(=O)[C@H](C)[C@@H](O)[C@]1(C)O [clarithromycin],,eradication effect on clarithromycin-resistant H. pylori (clear zone around disk) [2]: the clear zone was not shown; resistant rate [1]: 29.8%
C[C@H]1COc2c(N3CCN(C)CC3)c(F)cc3c(=O)c(C(=O)O)cn1c23 [levofloxacin],,resistant rate [1]: 37.2%
CCN[C@@H]1C[C@H](N)[C@@H](O[C@H]2OC(CN)=CC[C@H]2N)[C@H](O)[C@H]1O[C@H]1OC[C@](C)(O)[C@H](NC)[C@H]1O [netilmicin],1.43%,
NC[C@H]1O[C@H](O[C@H]2[C@H](O)[C@@H](O[C@H]3O[C@H](CO)[C@@H](O)[C@H](N)[C@H]3O)[C@H](N)C[C@@H]2N)[C@H](N)C[C@@H]1O [tobramycin],36.3%,
gentamicin,2.78%,
